From publication PMC9147323, “Phytochemical content, especially spermidine derivatives, presenting antioxidant and antilipoxygenase activities in Thai bee pollens” (PeerJ, 2022)
Where “and” joins values, the source holds several entries; their conditions need not be identical. Equal entries are not always repeated. Marks after values point to notes of the source that are not given here.

What was measured:
[1] = DPPH free radical scavenging activity assay; conditions: mean ± 1 SD
Description: The potential of the partitioned extracts was determined as previously described ([Khongkarat et al., 2020]). Five different concentrations of each sample were prepared in DMSO. […] The absorbance was measured at a wavelength of 517 nm ([…]) using a microplate reader. Ascorbic acid (vitamin C) was used as the standard reference. Each assay was performed in triplicate. The free radical scavenging activity was calculated from Eq. (1): (1) % DPPH radical scavenging activity=A-B/A×100, where A is the […] the negative control and B is the […] of the treatment.

[2] = ABTS radical scavenging activity / Trolox equivalent antioxidant capacity (TEAC); conditions: for ABTS EC50: mean ± 1 SD; for ABTS (µmol TE/g): fractions after SiG60-CC and HPLC, mean ± 1SD
Description: The TEAC assay followed the described method ([Suriyatem et al., 2017]). The stock ABTS^•+ solution was prepared by reacting 7 mM ABTS solution with 2.45 mM potassium persulphate solution in distilled water at a 1:1 (v/v) ratio in the dark at room temperature for 16 h before use. The working ABTS^•+ solution was prepared by diluting the stock ABTS^•+ solution (one mL) with ethanol (35 mL) to get an absorbance at 734 nm (A734) of 0.700 ± 0.025. […] The percentage of inhibition was calculated according to Eq. (2), (2) % ABTS radical scavenging activity=A−B/A×100, where A is the A734of the negative control and B is the A734of the treatment.

[3] = Ferric reducing antioxidant power (FRAP); conditions: fractions after SiG60-CC and HPLC; mean ± 1SD
Description: The FRAP assay was performed as previously described ([Sun et al., 2017]). The FRAP reagent was freshly prepared by mixing 100 mL of 300 mM acetate buffer (pH 3.6), 10 mL of 10 mM 2,4,6-tris(2pyridyl)-s-triazine solution in 40 mM hydrochloric acid, and 10 mL of 20 mM ferric chloride solution. Later, 100 µL of the sample at a desired concentration was added to three mL of the FRAP reagent and incubated at 37 °C in a water bath for 6 min. The absorbance was measured at a wavelength of 593 nm. Aqueous solutions of ferrous sulfate (0–2,000 µM) were used to establish the standard graph and the reducing capacity was expressed as µmole of Fe^2+/g extract. Each assay was performed in triplicate.

LOX from soybean = molecular target: T1, LOX from soybean (Glycine max, UniProt P08170); assay: In vitro LOXI activity; conditions: mean ± 1 SD
T1 sequence (P08170 1-839): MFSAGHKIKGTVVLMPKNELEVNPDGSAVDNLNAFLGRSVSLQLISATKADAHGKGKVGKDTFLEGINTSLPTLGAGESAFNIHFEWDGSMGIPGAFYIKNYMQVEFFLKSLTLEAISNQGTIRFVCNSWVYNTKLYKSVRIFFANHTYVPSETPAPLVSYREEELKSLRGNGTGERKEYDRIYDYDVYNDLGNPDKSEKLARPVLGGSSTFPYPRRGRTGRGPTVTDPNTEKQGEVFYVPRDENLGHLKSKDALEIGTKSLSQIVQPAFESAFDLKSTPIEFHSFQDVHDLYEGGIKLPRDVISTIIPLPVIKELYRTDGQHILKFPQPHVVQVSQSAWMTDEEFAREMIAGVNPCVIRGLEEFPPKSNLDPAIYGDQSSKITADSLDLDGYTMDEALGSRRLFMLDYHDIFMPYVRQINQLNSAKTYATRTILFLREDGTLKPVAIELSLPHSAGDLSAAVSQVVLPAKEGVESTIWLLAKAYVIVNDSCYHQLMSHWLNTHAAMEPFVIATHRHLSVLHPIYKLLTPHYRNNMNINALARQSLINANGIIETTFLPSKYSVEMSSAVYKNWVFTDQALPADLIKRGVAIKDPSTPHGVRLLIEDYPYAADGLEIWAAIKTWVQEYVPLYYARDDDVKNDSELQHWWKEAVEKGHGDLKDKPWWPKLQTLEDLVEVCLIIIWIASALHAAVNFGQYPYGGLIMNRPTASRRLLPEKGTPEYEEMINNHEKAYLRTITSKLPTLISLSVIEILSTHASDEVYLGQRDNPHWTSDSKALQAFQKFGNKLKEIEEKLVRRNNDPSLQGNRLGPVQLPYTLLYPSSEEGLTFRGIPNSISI

For `O=C1O[C@H]([C@@H](O)CO)C(O)=C1O` [Ascorbic acid, reference compound], the “DPPH EC50” value [1] was 68.00 ± 1.13^a µg/mL and 68.00 ± 1.13^b µg/mL, the “DPPH EC50” value ([1]; listed as ascorbic acid) was 68.00 ± 1.13 µg/mL and the “ABTS EC50” value [2] was 44.54 ± 0.19^a µg/mL and 44.54 ± 0.19^c µg/mL and 44.54 ± 0.19^b µg/mL. For the same compound, the “ABTS EC50” value ([2]; listed as ascorbic acid) was 44.54 ± 0.19 µg/mL.

In the case of `COc1cc(C=CC(=O)NCCCCN(CCCNC(=O)C=Cc2ccc(O)c(OC)c2)C(=O)C=Cc2ccc(O)c(OC)c2)ccc1O` [DCMMBP3-1, N^1, N^5, N^10-triferuloyl spermidine], the “DPPH EC50” value [1] is reported as 53.05 ± 2.60^a µg/mL, the “ABTS (µmol TE/g)” value [2] is reported as 2,527.63 ± 7.99^a µmol TE/g and the “ABTS EC50” value [2] is reported as 25.38 ± 0.67^a µg/mL. The “FRAP (µmol Fe^2+/g)” value [3] was 3,477.33 ± 52.07^a µmol Fe^2+/g and the “LOXI IC50” value (LOX from soybean) was 11.31 ± 0.46^a µg/mL.

With `COc1cc(/C=C/C(=O)NCCCCN(CCCNC(=O)/C=C/c2ccc(O)c(OC)c2)C(=O)/C=C/c2ccc(O)c(OC)c2)ccc1O` [DCMMBP3-2, N^1, N^5, N^10-tri-(E, E, E)-feruloyl spermidine] the “DPPH EC50” value [1] was 57.7 ± 2.77^a µg/mL, the “ABTS (µmol TE/g)” value [2] was 2,339.16 ± 34.62^b µmol TE/g and the “ABTS EC50” value [2] was 28.29 ± 1.05^b µg/mL. For the same compound, the “FRAP (µmol Fe^2+/g)” value [3] was 3,091.78 ± 44.48^b µmol Fe^2+/g and the “LOXI IC50” value (LOX from soybean) was 11.57 ± 0.93^a µg/mL.
